# From ChEMBL document CHEMBL1135190, “A comparison of the binding of three series of nicotinic ligands” (Bioorg Med Chem Lett, 2002)
# Biological target: Neuronal acetylcholine receptor
# Test: Binding affinity towards nicotinic acetylcholine receptor using [3H]nicotine as radioligand in rat brain homogenates
# Format: tissue-based
row,SMILES,Ki
1,CCN(C)Cc1ccc(Br)nc1,62 nM
2,CCN(C)CCOc1cccnc1,22 nM
3,CN1CCCC1c1ccc(Br)nc1 (stereo unspecified),0.45 nM
4,CCN(C)CCOc1cncc(Br)c1,447 nM
5,CCN(C)Cc1cnc2cc3ccncc3cc2c1,1110 nM
6,CCN(C)Cc1cnccc1F,93 nM
7,CCN(C)Cc1ccc(C)nc1,66 nM
8,CCN(C)Cc1cnccc1Cl,41 nM
9,CCN(C)CCOc1ccc(OC)nc1,4070 nM
10,CCN(C)CCOc1ccc(Br)nc1,290 nM
11,CN1CCCC1c1cncc(Cl)c1 (stereo unspecified),0.63 nM
12,c1ccc2ncc(C3CCCN3)cc2c1 (stereo unspecified),93 nM
13,CCN(C)Cc1cncc(OC)c1,115 nM
14,CN1CCCC1c1cnc2cc3ccncc3cc2c1 (stereo unspecified),11.2 nM
15,CCN(C)CCOc1cncc(OC)c1,16 nM
16,CN1CCCC1c1cncc(F)c1 (stereo unspecified),1.03 nM
